Earlier results in patent publication US20160367620A1, “GLUTATHIONE” (priority 2015, published 2016).

Tests used:
[1] = system: human IL-4 production; conditions: stimulated peripheral blood T cells, Th0- and Th2-like T cell clones; cited from earlier work
[2] = system: human alveolar macrophages (AM); conditions: AM previously exposed to LPS; cited from earlier work
[3] = system: influenza virus specific lymphocytes; conditions: cited from earlier work
[4] = system: HIV-1 LTR; conditions: Jurkat cells; cited from earlier work
[5] = system: NFκB and COX-2; conditions: cited from earlier work
[6] = system: NFκB activation by LPS; conditions: rats; cited from earlier work
[7] = system: murine macrophage J774 cells; conditions: pretreatment; cited from earlier work
[8] = system: HUVEC and QG90 cell; conditions: pretreatment of HUVEC, IL-1 induced; cited from earlier work
[9] = system: human immunodeficiency virus (HIV) expression; conditions: U1 cells; cited from earlier work

Structure (SMILES): CC(=O)N[C@@H](CS)C(=O)O [NAC, N-Acetyl-L-Cysteine]
- human IL-4 production [1]: decreased in a dose-dependent manner
- IL-12 secretion [2]: enhanced
- IFN γ production [3]: increased
- influenza virus specific lymphocyte proliferation [3]: increased
- specific activity of influenza specific CD8+ CTL's [3]: enhanced
- induction of HIV-1 LTR-mediated gene expression by TNF-α and Tat [4]: significantly suppressed
- activation of NFκB and COX-2 by H. pylori infection [5]: inhibited
- NFκB activation by LPS [6]: decreased
- decrease of lung lavage neutrophil count [6]: six fold
- protection of macrophages against SNAP [7]: protected
- cell-to-cell attachment of cancer cells to HUVEC [8]: efficiently blocked the cell-to-cell attachment in a dose-dependent manner
- cytotoxic or cytostatic effects [9]: absence of cytotoxic or cytostatic effects
- induction of HIV expression mediated by PMA, TNF-α, or IL-6 [9]: suppressed in a dose-dependent fashion
